# Results as given in patent US10159254B2, “Weed control methods” (Syngenta Participations AG, priority 2013, dated 2018).
# Values joined by “and” are separate entries in the source; they are usually repeats but may differ in a detail not shown here. Identical values can stand only once.
# Assays:
# SYHT0H2 soybeans = test: Greenhouse: tank-mix and sequential Sequestrene 138Fe, HPPD-inhibitor maximum injury; type: in vivo, soybean; conditions: mesotrione 420, bicyclopyrone 200, tembotrione 368 g ai/ha
# Description: Effect of Tank-mix and Sequential Application of Sequestrene® 138 on Mesotrione (Applied as Callisto®)—Maximum Injury in SYHT0H2 Soybeans
# An experiment is conducted in the greenhouse to determine the effect of chelated iron (Sequestrene 138Fe containing 6% iron) on HPPD-inhibitor injury to SYHT0H2 soybeans. Soybeans are grown in pots filled with a greenhouse potting mix. When the plants reach the V2-V3 stage, they are sprayed with an HPPD-inhibitor herbicide applied alone (Treatment 1), or in tank mixture with Sequestrene 138Fe (Treatment 2), or sequentially with Sequestrene 138Fe applied 1 day before the HPPD inhibitor (Treatment 3). Sequestrene 138Fe is applied at 2240 g/ha (equivalent to 134 g iron/ha). All treatments are applied with liquid ammonium sulfate @ 2.5% v/v and a non-ionic surfactant (NIS) @ 0.25% v/v in 150 L/ha water. Observations on percent injury are recorded 5, 11, or 22 days after treatment. Data presented are maximum injury observed during the trial.
# [1] = system: untransformed clonal tobacco plants (WT); test: Wild type tobacco herbicide damage, mesotrione with or without Sequestrene 138; type: in vivo, Nicotiana tabacum cv Samsun (tobacco)
# Description: Effect of Iron Chelates in Mitigating Foliar Bleaching Injury from HPPD Inhibiting Herbicides Across Various Transgenic HPPD Tolerant Tobacco Events Over-expressing HPPD Genes from Different Origins
# This experiment is carried out to determine whether iron chelates can mitigate the bleaching injury from HPPD inhibiting herbicides across various transgenic HPPD tolerant tobacco events over-expressing HPPD genes from different origins. These experiments are conducted using three distinct HPPD-overexpressing Nicotiana tabacum cv Samsun (tobacco) lines, one over-expressing wheat HPPD, one overexpressing an Avena HPPD and one over-expressing a HPPD from a bacterial source, Pseudomonas florescens. For each transgenic line, five identical clonal plants were sprayed with each herbicide treatment. Two untransformed clonal tobacco plants are also sprayed ([…]) with each herbicide treatment. Assessments are carried out 3, 7 and 14 days after herbicide application.
# All scores represent average % herbicide damage. […] An equivalent safening effect is not observed when the same chemical treatments are applied to wild type plants.
# SYHT04R soybeans = test: Greenhouse: Sequestrene 138Fe safening of HPPD-inhibitors, injury 6 days after treatment; type: in vivo, soybean; conditions: 6 days after treatment (maximum injury), mesotrione 420, bicyclopyrone 200, isoxaflutole 280 g/ha
# Description: Effect of Sequestrene® 138Fe on Various HPPD-inhibitors in SYHT04R Soybeans. Maximum Injury Assessed 6 Days after Treatment
# A greenhouse experiment is conducted to determine if Sequestrene® 138Fe was effective in safening various other HPPD herbicide-tolerant soybean events, such as SYHT04R.
# SYHT04R soybean plants are grown in 4×4-inch pots filled with a greenhouse potting mix. When the plants reached the V2-V3 growth stage, they are sprayed with an HPPD inhibitor alone or in combination with Sequestrene® 138Fe at 1120 g/ha (equivalent to 67.2 g iron/ha). […] Observations on percent injury are recorded at 6 and 20 days after treatment. Data presented is from the 6 days after treatment rating representing the maximum injury observed during the experiment.
# [2] = system: Velvetleaf (Abutilon theophrasti); test: Greenhouse weed control: HPPD inhibitors with or without Sequestrene 138Fe, velvetleaf; type: in vivo; conditions: percent velvetleaf control 19 DAT
# Description: Effect of Tank Mix Applications of HPPD Inhibitors and Sequestrene® 138Fe on Velvetleaf Control. Percent Control Assessed 19 DAT
# A greenhouse experiment is conducted to determine the effect of chelated iron on weed control in the greenhouse. Velvetleaf (Abutilon theophrasti) and common waterhemp (Amaranthus rudis) plants are grown in 4×4-inch pots filled with a greenhouse potting mix. When the plants reached the 2 to 3 inch height (2 to 3 leaf stage), they are sprayed with a reduced rate of an HPPD inhibitor alone or in a tank mix combination with Sequestrene 138Fe at 140 g/ha (equivalent to 8.4 g iron/hectare) or 280 g/ha (equivalent to 16.8 g iron/hectare). […] Observations on percent control are recorded 12, 19, and 25 days after treatment.
smiles,measurement,setting,value
"CS(=O)(=O)c1ccc(C(=O)C2C(=O)CCCC2=O)c([N+](=O)[O-])c1 [Mesotrione, mesotrione]",% Maximum Injury,"SYHT0H2 soybeans; Sequestrene 138Fe 2240 g/ha applied 1 day before herbicide (Treatment 3, sequential)",7%
same,% Maximum Injury,"SYHT0H2 soybeans; herbicide alone (Treatment 1), maximum of 5, 11, 22 days after treatment",20%
same,% Maximum Injury,"SYHT0H2 soybeans; tank mix with Sequestrene 138Fe 2240 g/ha (Treatment 2, simultaneous)",0%
same,% herbicide damage,"[1]; Trt 1: mesotrione 50 gai/ha alone, 3DAA",60% and 65%
same,% herbicide damage,"[1]; Trt 1: mesotrione 50 gai/ha alone, 7DAA",80%
same,% herbicide damage,"[1]; Trt 1: mesotrione 50 gai/ha alone, 14DAA",85%
same,% herbicide damage,"[1]; Trt 2: mesotrione 100 gai/ha alone, 3DAA",70%
same,% herbicide damage,"[1]; Trt 2: mesotrione 100 gai/ha alone, 7DAA",80%
same,% herbicide damage,"[1]; Trt 2: mesotrione 100 gai/ha alone, 14DAA",85% and 90%
same,% herbicide damage,"[1]; Trt 3: mesotrione 150 gai/ha alone, 3DAA",55% and 60%
same,% herbicide damage,"[1]; Trt 3: mesotrione 150 gai/ha alone, 7DAA",80%
same,% herbicide damage,"[1]; Trt 3: mesotrione 150 gai/ha alone, 14DAA",85%
same,% herbicide damage,"[1]; Trt 4: mesotrione 50 gai/ha + Sequestrene 138 1000 g/ha, 3DAA",50%
same,% herbicide damage,"[1]; Trt 4: mesotrione 50 gai/ha + Sequestrene 138 1000 g/ha, 7DAA",80%
same,% herbicide damage,"[1]; Trt 4: mesotrione 50 gai/ha + Sequestrene 138 1000 g/ha, 14DAA",70% and 75%
same,% herbicide damage,"[1]; Trt 5: mesotrione 100 gai/ha + Sequestrene 138 1000 g/ha, 3DAA",60%
same,% herbicide damage,"[1]; Trt 5: mesotrione 100 gai/ha + Sequestrene 138 1000 g/ha, 7DAA",80%
same,% herbicide damage,"[1]; Trt 5: mesotrione 100 gai/ha + Sequestrene 138 1000 g/ha, 14DAA",75% and 85%
same,% herbicide damage,"[1]; Trt 6: mesotrione 150 gai/ha + Sequestrene 138 1000 g/ha, 3DAA",60%
same,% herbicide damage,"[1]; Trt 6: mesotrione 150 gai/ha + Sequestrene 138 1000 g/ha, 7DAA",80%
same,% herbicide damage,"[1]; Trt 6: mesotrione 150 gai/ha + Sequestrene 138 1000 g/ha, 14DAA",85%
same,% herbicide damage,"[1]; Trt 7: mesotrione 200 gai/ha alone, 3DAA",60%
same,% herbicide damage,"[1]; Trt 7: mesotrione 200 gai/ha alone, 7DAA",80%
same,% herbicide damage,"[1]; Trt 7: mesotrione 200 gai/ha alone, 14DAA",85%
same,% herbicide damage,"[1]; Trt 8: mesotrione 300 gai/ha alone, 3DAA",65%
same,% herbicide damage,"[1]; Trt 8: mesotrione 300 gai/ha alone, 7DAA",80%
same,% herbicide damage,"[1]; Trt 8: mesotrione 300 gai/ha alone, 14DAA",90% and 85%
same,% herbicide damage,"[1]; Trt 9: mesotrione 400 gai/ha alone, 3DAA",55% and 60%
same,% herbicide damage,"[1]; Trt 9: mesotrione 400 gai/ha alone, 7DAA",80%
same,% herbicide damage,"[1]; Trt 9: mesotrione 400 gai/ha alone, 14DAA",85%
same,% herbicide damage,"[1]; Trt 10: mesotrione 200 gai/ha + Sequestrene 138 1000 g/ha, 3DAA",55% and 60%
same,% herbicide damage,"[1]; Trt 10: mesotrione 200 gai/ha + Sequestrene 138 1000 g/ha, 7DAA",80%
same,% herbicide damage,"[1]; Trt 10: mesotrione 200 gai/ha + Sequestrene 138 1000 g/ha, 14DAA",85%
same,% herbicide damage,"[1]; Trt 11: mesotrione 300 gai/ha + Sequestrene 138 1000 g/ha, 3DAA",50% and 60%
same,% herbicide damage,"[1]; Trt 11: mesotrione 300 gai/ha + Sequestrene 138 1000 g/ha, 7DAA",80%
same,% herbicide damage,"[1]; Trt 11: mesotrione 300 gai/ha + Sequestrene 138 1000 g/ha, 14DAA",90% and 85%
same,% herbicide damage,"[1]; Trt 12: mesotrione 400 gai/ha + Sequestrene 138 1000 g/ha, 3DAA",55% and 60%
same,% herbicide damage,"[1]; Trt 12: mesotrione 400 gai/ha + Sequestrene 138 1000 g/ha, 7DAA",80%
same,% herbicide damage,"[1]; Trt 12: mesotrione 400 gai/ha + Sequestrene 138 1000 g/ha, 14DAA",90% and 85%
same,% herbicide damage,"[1]; Trt 13: mesotrione 400 gai/ha alone, 3DAA",50% and 55%
same,% herbicide damage,"[1]; Trt 13: mesotrione 400 gai/ha alone, 7DAA",80%
same,% herbicide damage,"[1]; Trt 13: mesotrione 400 gai/ha alone, 14DAA",95% and 90%
same,% herbicide damage,"[1]; Trt 14: mesotrione 500 gai/ha alone, 3DAA",55% and 60%
same,% herbicide damage,"[1]; Trt 14: mesotrione 500 gai/ha alone, 7DAA",80%
same,% herbicide damage,"[1]; Trt 14: mesotrione 500 gai/ha alone, 14DAA",85%
same,% herbicide damage,"[1]; Trt 15: mesotrione 600 gai/ha alone, 3DAA",55%
same,% herbicide damage,"[1]; Trt 15: mesotrione 600 gai/ha alone, 7DAA",80%
same,% herbicide damage,"[1]; Trt 15: mesotrione 600 gai/ha alone, 14DAA",85%
same,% herbicide damage,"[1]; Trt 16: mesotrione 400 gai/ha + Sequestrene 138 1000 g/ha, 3DAA",60% and 55%
same,% herbicide damage,"[1]; Trt 16: mesotrione 400 gai/ha + Sequestrene 138 1000 g/ha, 7DAA",80%
same,% herbicide damage,"[1]; Trt 16: mesotrione 400 gai/ha + Sequestrene 138 1000 g/ha, 14DAA",90% and 95%
same,% herbicide damage,"[1]; Trt 17: mesotrione 500 gai/ha + Sequestrene 138 1000 g/ha, 3DAA",50% and 60%
same,% herbicide damage,"[1]; Trt 17: mesotrione 500 gai/ha + Sequestrene 138 1000 g/ha, 7DAA",80%
same,% herbicide damage,"[1]; Trt 17: mesotrione 500 gai/ha + Sequestrene 138 1000 g/ha, 14DAA",90%
same,% herbicide damage,"[1]; Trt 18: mesotrione 600 gai/ha + Sequestrene 138 1000 g/ha, 3DAA",55%
same,% herbicide damage,"[1]; Trt 18: mesotrione 600 gai/ha + Sequestrene 138 1000 g/ha, 7DAA",80%
same,% herbicide damage,"[1]; Trt 18: mesotrione 600 gai/ha + Sequestrene 138 1000 g/ha, 14DAA",90% and 85%
same,% Injury,SYHT04R soybeans; Sequestrene 138Fe 0 g/ha,23%
same,% Injury,SYHT04R soybeans; Sequestrene 138Fe 1120 g/ha,3%
same,% Injury,"[2]; Sequestrene 138Fe 0 g/ha, g ai/ha: mesotrione 26, isoxaflutole 26, bicyclopyrone 50, tembotrione 46, pyrasulfatole 22, topramezone 18",100%
same,% Injury,"[2]; Sequestrene 138Fe 140 g/ha tank mix, mesotrione 26, isoxaflutole 26 g ai/ha",100%
